Experiments:
Experiment in all cases: relative viability (nuclei count vs DMSO), 5 days (fraction); higher = more cells survive
[1] = compound: CC[C@@H](C)CNCC(=O)N1CCC2=C([C@@H]1COC3=CC=CC(=C3)C)C=CS2 [RU-SKI 43] + Cc1nc(Nc2ncc(C(=O)Nc3c(C)cccc3Cl)s2)cc(N2CCN(CCO)CC2)n1 [Dasatinib] (partner 0.075 µM)
In short: (§1)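 For relative viability, nuclei counts in treated wells were divided by those in vehicle wells. Lung cancer cell lines had been pin-tool dosed in 1536-well plates the day after seeding and cultured for 5 days, then fixed and stained in one step (final 0.05% Triton X-100, 1% formaldehyde, 1 ug/ml Hoechst) and imaged at 4×. Doses were one drug alone or a fixed anchor-drug dose plus five library-drug doses (not always all listed) in √10 steps, and values are duplicate-plate medians.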

[2] = compound: CCc1c2c(nc3ccc(OC(=O)N4CCC(N5CCCCC5)CC4)cc13)-c1cc3c(c(=O)n1C2)COC(=O)[C@]3(O)CC [Irinotecan] + CS(=O)(=O)N1CCN(Cc2cc3nc(-c4cccc5[nH]ncc45)nc(N4CCOCC4)c3s2)CC1 [Pictilisib] (partner 1 µM)
In short: as §1

[3] = compound: Cn1cc(-c2cnc3ccc4ccc(CS(=O)(=O)NCc5ccccn5)cc4c(=O)c3c2)cn1 [MK-8033] + CCNC(=O)c1noc(-c2cc(C(C)C)c(O)cc2O)c1-c1ccc(CN2CCOCC2)cc1 [Luminespib] (partner 0.01 µM)
In short: as §1

[4] = compound: Cn1cc(-c2cnc3ccc4ccc(CS(=O)(=O)NCc5ccccn5)cc4c(=O)c3c2)cn1 [MK-8033] + CS(=O)(=O)CCNCc1ccc(-c2ccc3ncnc(Nc4ccc(OCc5cccc(F)c5)c(Cl)c4)c3c2)o1 [Lapatinib] (partner 2 µM)
In short: as §1

Cell Line | relative viability ([1]; first compound 0.1 µM) | relative viability ([1]; first compound 0.3162 µM) | relative viability ([1]; first compound 1 µM) | relative viability ([1]; first compound 3.162 µM) | relative viability ([1]; first compound 10 µM) | relative viability ([2]; first compound 0.6325 µM) | relative viability ([2]; first compound 2 µM) | relative viability ([2]; first compound 6.325 µM) | relative viability ([2]; first compound 20 µM) | relative viability ([3]; first compound 0.02 µM) | relative viability ([3]; first compound 0.06325 µM) | relative viability ([3]; first compound 0.2 µM) | relative viability ([3]; first compound 0.6325 µM) | relative viability ([3]; first compound 2 µM) | relative viability ([4]; first compound 0.02 µM) | relative viability ([4]; first compound 0.06325 µM) | relative viability ([4]; first compound 0.2 µM) | relative viability ([4]; first compound 0.6325 µM) | relative viability ([4]; first compound 2 µM)
NCI-H1975 | 0.357 | 0.461 | 0.441 | 0.356 | 0.401 | 0.339 | 0.316 | 0.204 | 0.154 | 0.195 | 0.24 | 0.176 | 0.203 | 0.15 | 0.829 | 0.795 | 0.801 | 0.844 | 0.826
SK-MES-1 | 0.336 | 0.358 | 0.357 | 0.342 | 0.388 | 0.336 | 0.319 | 0.254 | 0.257 | 0.628 | 0.728 | 0.722 | 0.908 | 0.823 | 0.433 | 0.437 | 0.478 | 0.459 | 0.441
NCI-H2170 | 0.695 | 0.634 | 0.616 | 0.716 | 0.467 | 0.32 | 0.242 | 0.224 | 0.157 | 0.435 | 0.388 | 0.694 | 0.622 | 0.726 | 0.272 | 0.263 | 0.254 | 0.311 | 0.275
NCI-H647 | 0.155 | 0.226 | 0.223 | 0.192 | 0.135 |  | 0.65 | 0.219 | 0.208 | 0.119 | 0.178 | 0.213 | 0.151 | 0.154 | 0.892 | 1.02 | 0.798 | 1.09 | 1.05
A-427 | 0.823 | 0.656 | 0.693 | 0.718 | 0.643 |  | 0.392 | 0.19 | 0.225 | 0.85 | 0.85 | 0.83 | 0.88 | 0.91 | 1.05 | 1.1 | 0.947 | 1.1 | 1.08
CAL-12T | 0.404 | 0.41 | 0.348 | 0.38 | 0.413 | 0.4 | 0.396 | 0.443 | 0.327 | 0.263 | 0.305 | 0.518 | 0.319 | 0.53 | 0.604 | 0.566 | 0.601 | 0.868 | 0.591

Reference: the supplement of paper PMC10307832
